Legend:
[1] = Displacement of [3H]di-o-tolylguanidine from sigma-2 opioid receptor in rat brain; assay type: tissue-based
[2] = Selectivity ratio of Ki for guinea pig brain sigma-1 opioid receptor to Ki for rat liver sigma-2 opioid receptor
[3] = Displacement of [3H]-DTG from sigma-2 opioid receptor in rat liver
Homo sapiens [4] = organism: Homo sapiens; assay: Selectivity ratio of Ki for sigma-1 opioid receptor (unknown origin) to Ki for sigma-2 opioid receptor (unknown origin)
[5] = Binding affinity to sigma-2 opioid receptor (unknown origin); set-up: species or system Homo sapiens
[6] = molecular target: Sigma non-opioid intracellular receptor 1 (Homo sapiens, UniProt Q99720); assay: Binding affinity to sigma-1 opioid receptor (unknown origin)
Homo sapiens [7] = organism: Homo sapiens; assay: Selectivity ratio of IC50 for sigma-1 opioid receptor (unknown origin) to IC50 for sigma-2 opioid receptor (unknown origin)
Cavia porcellus [8] = organism: Cavia porcellus; assay: Selectivity ratio of Ki for guinea pig brain membrane sigma-1 opioid receptor to Ki for guinea pig brain membrane sigma-2 opioid receptor
[9] = Binding affinity to sigma-1 opioid receptor (unknown origin)
[10] = Displacement of [3H]ditolylguanidine from sigma-2 opioid receptor in rat liver membranes by liquid scintillation spectrometric analysis; assay type: cell membranes, Membrane
TRAMP = assay: Selectivity ratio of Ki for sigma-1 opioid receptor in TRAMP cell membranes to Ki for sigma-2 opioid receptor in TRAMP cell membranes; assay type: cell-based; conditions: Mus musculus
[11] = Displacement of [3H]progesterone from sigma-1 opioid receptor in porcine liver microsome membranes; assay type: microsomes, Sus scrofa
[12] = Ratio of drug level in nuclear fraction to cytosolic fraction of human MCF7/ADR cells at 20 to 50 uM after 2 hrs by beta counting analysis; assay type: ADME, cell-based; conditions: nci/adr-res
[13] = Ratio of drug level in nuclear fraction to cytosolic fraction of human SK-N-SH cells at 20 to 50 uM after 2 hrs by beta counting analysis; assay type: ADME, cell-based
[14] = Lipophilicity, log P of the compound; assay type: physicochemical; conditions: octanol/water
[15] = molecular target: Sigma non-opioid intracellular receptor 1 (Cavia porcellus, UniProt Q60492); assay: Binding affinity to guinea pig brain membrane sigma-1 opioid receptor by radioligand displacement assay
[16] = Binding affinity to guinea pig brain membrane sigma-2 opioid receptor by radioligand displacement assay; set-up: species or system Cavia porcellus
[17] = Binding affinity to guinea pig hippocampus sigma-2 opioid receptor; set-up: species or system Cavia porcellus
Cavia porcellus [18] = organism: Cavia porcellus; assay: Selectivity ratio of Ki for guinea pig hippocampus sigma-1 opioid receptor to Ki for guinea pig hippocampus sigma-2 opioid receptor

Sequence of Sigma non-opioid intracellular receptor 1 (Homo sapiens, UniProt Q99720) (Q99720 whole entry): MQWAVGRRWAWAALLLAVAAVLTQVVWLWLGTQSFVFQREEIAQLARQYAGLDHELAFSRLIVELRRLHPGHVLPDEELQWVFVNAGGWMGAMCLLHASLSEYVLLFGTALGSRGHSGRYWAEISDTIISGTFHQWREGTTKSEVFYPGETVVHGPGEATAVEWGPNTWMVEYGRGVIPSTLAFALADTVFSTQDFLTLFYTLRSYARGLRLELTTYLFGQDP
Sequence of Sigma non-opioid intracellular receptor 1 (Cavia porcellus, UniProt Q60492) (Q60492 whole entry): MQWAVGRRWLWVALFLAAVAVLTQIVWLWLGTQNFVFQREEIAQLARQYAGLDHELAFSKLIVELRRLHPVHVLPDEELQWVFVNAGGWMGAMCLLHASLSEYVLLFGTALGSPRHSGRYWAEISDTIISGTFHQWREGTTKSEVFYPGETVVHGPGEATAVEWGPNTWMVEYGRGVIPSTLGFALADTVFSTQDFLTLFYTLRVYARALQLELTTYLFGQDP

| SMILES | Ratio Ki (Homo sapiens [4]) | Ki [5] [nM] | Ki [6] [nM] | further results |
| --- | --- | --- | --- | --- |
| CC(=O)c1ccc2c(c1)oc(=O)n2CCCCN1CCN(c2ccc(F)cc2)CC1 | – | – | – | Ki [1]: 7 nM |
| COc1cccc2c1CCCC2CCCC1CCN(C2CCCCC2)CC1 (stereo not drawn) | – | – | – | Ratio Ki [2]: 29; Ki [3]: 26.6 nM |
| CCC(Oc1ccc(Cl)cc1)C(=O)OC1CC2CCC(C1)N2C (racemic) | > 15 | 67.5 | > 1000 | – |
| O=S(=O)(c1ccccc1)n1cc(CCCCN2CCC3(CC2)OCc2ccccc23)c2ccccc21 | – | 0.17 | 10 | Ratio IC50 (Homo sapiens [7]): 59 |
| CS(=O)(=O)n1cc(CCCCN2CCC3(CC2)OCc2ccccc23)c2ccccc21 | – | 0.05 | 1.3 | Ratio IC50 (Homo sapiens [7]): 26 |
| COC(=O)[C@@]1(c2ccccc2)C[C@H]1CN1C2CCC1CC(O)(c1ccc(Cl)cc1)C2 (stereo partly drawn) | – | – | – | Ratio Ki (Cavia porcellus [8]): 20.6 |
| COc1cc2c(cc1OC)CN(CCNC(=O)c1cc(C)ccc1OC)CC2 | – | 13.3 | – | – |
| CN1CC[C@]2(c3cccc(O)c3)CC(=O)/C(=C/c3cccc(O)c3)[C@H]1C2 | 185 | 16.5 | 3060 | – |
| COc1cccc2c1CCC[C@@H]2NC(=O)CN1CCN(C2CCCCC2)CC1 | – | – | – | Ratio Ki [2]: 16; Ki [3]: 6 nM |
| COc1cc2c(cc1OC)CN(CCNC(=O)c1cc(Br)cc(OC)c1OC)CC2 | 179 | 16.4 | – | Ki [9]: 2930 nM |
| CC(=O)[C@H]1CC[C@H]2[C@@H]3CCC4=CC(=O)CC[C@]4(C)[C@H]3CC[C@]12C [PROGESTERONE] | – | – | – | Kd [10]: 441 nM |
| COc1cc2c(cc1OC)CN(CCNC(=O)c1cc(Br)ccc1OC)CC2 | – | 12.4 | – | Ki [9]: 5480 nM |
| COc1ccc(CN2C3CCC2CC3)cc1OC | – | 43 | – | – |
| CN1CC[C@@]2(c3cccc(O)c3)CC(=O)/C(=C/c3ccc(Cl)c(Cl)c3)[C@@H]1C2 | 0.77 | 35.3 | 27.3 | – |
| COc1ccc(C(=O)NCCCCN2CCc3ccc([N+](=O)[O-])cc3C2)c(OC)c1OC | 385 | 26.8 | 10300 | – |
| COc1cccc2c(CCCN3CCN(C4CCCCC4)CC3)cccc12 | – | – | – | Ratio Ki (TRAMP): 13 |

| SMILES | Ratio Ki (Homo sapiens [4]) | Ki [5] [nM] | Ki [6] [nM] | further results |
| --- | --- | --- | --- | --- |
| CC(C)=CCN1CC[C@]2(C)c3cc(O)ccc3C[C@H]1[C@H]2C [(+)-PENTAZOCINE] | – | – | – | Ki [11]: 1130 nM |
| COc1cccc2c1CCC[C@H]2NC(=O)CN1CCN(C2CCCCC2)CC1 | – | – | – | Ratio Ki [2]: 2; Ki [3]: 10.1 nM |
| CN1CC[C@]2(c3cccc(O)c3)CC(=O)/C(=C/c3ccc(Cl)c(Cl)c3)[C@H]1C2 | 555 | 13.4 | 7440 | – |
| COc1ccc(C)cc1NC(=O)OC1CC2CCCC(C1)N2Cc1ccc(N(C)C)cc1 (stereo not drawn) | 553 | 2.6 | 1440 | – |
| Fc1ccccc1N1CCN(CCCn2ccc3ccccc32)CC1 | 20 | 75 | 1490 | – |
| COc1cccc2c1CCCC2CCCN1CCN(C2CCCCC2)CC1 (racemic) | – | – | – | Ratio [12]: 5; Ratio Ki [2]: 0.56; Ratio [13]: 5 |
| CC[C@H]1C[C@H]2C[C@H]3c4[nH]c5ccc(OC)cc5c4CCN(C2)[C@@H]13 [IBOGAINE] | 43 | 201 | – | – |
| CC[C@H]1C[C@@H]2C[C@H]3c4[nH]c5ccc(OC)cc5c4CCN(C2)[C@@H]13 [IBOGAINE] | – | – | 8550 | – |
| CN1CC[C@@]2(c3cccc(O)c3)CC(=O)/C(=C/c3cccc(O)c3)[C@@H]1C2 | 0.07 | 153 | 10.5 | – |
| COc1cc(Br)cc(C(=O)NCCCCN2CCN(c3cccc(Cl)c3Cl)CC2)c1OC | – | 75 | – | Ki [9]: 809 nM; logP [14]: 5.76 |
| COc1cc2c(cc1OC)CN(CCCCNC(=O)c1cc(Br)cc(OC)c1OC)CC2 | – | 8.2 | – | – |
| OC12C3C4CC5C6C4C1C6C(C53)N2Cc1ccc(F)cc1 (stereo not drawn) | – | – | – | Ratio Ki (Cavia porcellus [8]): 7.6; Ki [15]: 152 nM; Ki [16]: 20 nM |
| Fc1ccc(C2=CC3CCC(C2)N3CCCCc2cn(-c3ccc(F)cc3)c3ccccc23)cc1 (stereo not drawn) | – | 2.5 | 1200 | Ratio IC50 (Homo sapiens [7]): 480 |
| CCn1c(=O)n(C(=O)NC2CC3CCC(C2)N3C)c2ccccc21 (stereo not drawn) | – | – | – | Ki [17]: 32 nM; Ratio Ki (Cavia porcellus [18]): 197 |
| COc1cccc2c1CCCC2CCCN1CCC(C2CCCCC2)CC1 (stereo not drawn) | – | – | – | Ratio Ki [2]: 7.6; Ki [3]: 18.8 nM |
